Data as given in patent US4014921A, “O-Acetoxy benzoate ester of 2(p-acetamido-phenyloxy)ethyl alcohol” (Alter, S.A., priority 1975, dated 1977).
Like-named read-outs stand apart in the source and are kept apart here.

Experiments:
[1] = Anti-inflammatory activity: edema inhibition (method of Winter, Risley and Nuss); type: in vivo; settings: in vivo; LD50 / anti-inflammatory ED50; read-out: anti-inflammatory ED50 times lower than LD50
edema = assay: as above; type: in vivo
[2] = Analgesic activity (test by Randall and Salitto); type: in vivo
Description: Int. Pharmacodyn 151, 409 (1957). Doses of 200, 300 and 500 mg/Kg. cause 1.43: 1.77 and 2.09 effects over controls.

[3] = Antithermic (antipyretic) activity: yeast extract-induced temperature rise in rabbits; type: in vivo, rabbit
Description: Antithermic activity was determined in rabbits, adjusting an endovenous dose of yeast extract to achieve a + 1.7° C rise over the basal temperature of the animal. Three hours after injecting the pyrogenic agent, 200 mg/Kg of the product were administered interperitoneally.

rat [4] = settings: in vivo, po
stomach or intestine [5] = settings: rat, in vivo, 500 mg/kg
rat [6] = assay: Toxicity test by oral administration in a rat (LD50, LD10)
[7] = as above; settings: rat, in vivo, po
stomach or intestine [8] = assay: Gastrointestinal toxicity: ulcers and hemorrhagic content after one dose of 500 mg/Kg in rats; settings: one dose of 500 mg/Kg, 10-rat groups
[9] = comparison with aspirin, in words

CC(=O)Nc1ccc(OCCOC(=O)c2ccccc2OC(C)=O)cc1 [Compound (I), o-acetoxy benzoate ester of 2(p-acetamido-phenyloxy)-ethyl alcohol]
selectivity ratio [1]: 10
anti-inflammatory activity relative to aspirin (edema; [9]): as active as aspirin
anti-inflammatory activity: times less active than indometacine (edema; comparison with indometacine): 33 times
inhibition at 200 mg/kg (edema; dose 200 mg/Kg): 23%
inhibition at 400 mg/kg (edema; dose 400 mg/Kg): 31%
analgesic activity relative to aspirin [2, 9]: equipotential with respect to aspirin
analgesic effect over controls ([2]; dose 200 mg/Kg): 1.43
analgesic effect over controls ([2]; dose 300 mg/Kg): 1.77
analgesic effect over controls ([2]; dose 500 mg/Kg): 2.09
animal's temperature after administration, for two consecutive hours ([3]; 200 mg/Kg interperitoneally, three hours after pyrogenic agent (+1.7° C rise)): decreased to its basal values
duration of antipyretic effect relative to aspirin and N-acetyl-p-aminophenol ([3]; in words): longer lasting effects
LD10 (maximum dose possible to administer) (rat [4]): 7,000 mg/Kg
gastrointestinal disorders, comparison with aspirin (stomach or intestine [5]): clear differences appear in favor of compound (I) over aspirin
ulcers of the stomach or intestine (stomach or intestine [5]): no ulcers
toxicity factor relative to aspirin (rat [6]; factor in favor of product (I) over aspirin): 7
toxicity relative to aspirin (rat [6]; oral, rat, in words): less toxic than aspirin

CC(=O)Oc1ccccc1C(=O)O [aspirin]
LD50 [7]: 978 mg/kg
rats whose stomachs revealed hemorrhagic content (stomach or intestine [8]): 60%
ulcers of the stomach or intestine (stomach or intestine [8]): no ulcers

COc1ccc2c(c1)c(CC(=O)O)c(C)n2C(=O)c1ccc(Cl)cc1 [indometacine, reference compound]
anti-inflammatory ED50 relative to toxic range (edema; in words): very close to the toxic range
